Source: article PMC5341070, “Small molecule inhibitors block Gas6-inducible TAM activation and tumorigenicity” (Scientific Reports, 2017)

Key:
Assay in all cases: biochemical
VEGFR2 = VEGFR2 (Homo sapiens, UniProt P35968); set-up: gene KDR; KINOMEscan (DiscoverX) competition binding screen of 97 human kinases, percent of control at 10 uM
Protocol: (§1) The KINOMEscan profiling of the inhibitors were performed as per directions by the manufacturer (DiscoverX) against a panel of human protein kinases.

ABL1-nonphosphorylated = target: T1, ABL1-nonphosphorylated (Homo sapiens, UniProt P00519); set-up: KINOMEscan (DiscoverX) competition binding screen of 97 human kinases, percent of control at 10 uM
T1 construct: nonphosphorylated
T1 sequence (P00519 whole entry): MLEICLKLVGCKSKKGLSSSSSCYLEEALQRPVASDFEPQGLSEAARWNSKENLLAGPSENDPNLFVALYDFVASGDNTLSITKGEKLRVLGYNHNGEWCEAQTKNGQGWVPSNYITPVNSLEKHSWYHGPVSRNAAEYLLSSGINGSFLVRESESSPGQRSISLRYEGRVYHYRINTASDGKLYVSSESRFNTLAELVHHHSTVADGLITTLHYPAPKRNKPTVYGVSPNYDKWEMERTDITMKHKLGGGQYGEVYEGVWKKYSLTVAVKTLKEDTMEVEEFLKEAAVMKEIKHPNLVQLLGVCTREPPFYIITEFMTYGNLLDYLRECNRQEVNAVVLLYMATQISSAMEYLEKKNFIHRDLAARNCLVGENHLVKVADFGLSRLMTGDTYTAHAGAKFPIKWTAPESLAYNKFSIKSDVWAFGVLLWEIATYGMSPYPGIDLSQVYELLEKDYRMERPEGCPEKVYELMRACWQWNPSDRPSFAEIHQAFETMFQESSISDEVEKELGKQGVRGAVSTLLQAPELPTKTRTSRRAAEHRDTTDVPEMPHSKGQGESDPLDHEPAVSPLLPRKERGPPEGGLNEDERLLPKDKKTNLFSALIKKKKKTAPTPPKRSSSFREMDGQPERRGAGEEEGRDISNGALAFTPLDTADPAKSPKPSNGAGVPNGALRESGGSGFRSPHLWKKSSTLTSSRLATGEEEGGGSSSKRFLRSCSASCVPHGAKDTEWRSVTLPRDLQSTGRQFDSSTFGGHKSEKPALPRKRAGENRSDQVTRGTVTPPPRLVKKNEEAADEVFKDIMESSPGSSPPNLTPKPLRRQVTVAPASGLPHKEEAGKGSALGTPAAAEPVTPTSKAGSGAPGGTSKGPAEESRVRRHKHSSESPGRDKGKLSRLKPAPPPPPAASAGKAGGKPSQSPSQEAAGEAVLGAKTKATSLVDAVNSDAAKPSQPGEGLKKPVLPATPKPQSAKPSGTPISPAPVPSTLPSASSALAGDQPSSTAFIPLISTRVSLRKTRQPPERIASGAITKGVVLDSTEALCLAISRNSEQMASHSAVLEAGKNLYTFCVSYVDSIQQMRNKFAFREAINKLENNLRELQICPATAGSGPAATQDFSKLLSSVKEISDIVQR
Protocol: as §1

AURKB = AURKB (Homo sapiens, UniProt Q96GD4); set-up: KINOMEscan (DiscoverX) competition binding screen of 97 human kinases, percent of control at 10 uM
Protocol: as §1

JNK3 = target: T2, JNK3 (Homo sapiens, UniProt P53779); set-up: KINOMEscan (DiscoverX) competition binding screen of 97 human kinases, percent of control at 10 uM
T2 construct: gene MAPK10
Protocol: as §1

CSF1R = CSF1R (Homo sapiens, UniProt P07333); set-up: KINOMEscan (DiscoverX) competition binding screen of 97 human kinases, percent of control at 10 uM
Protocol: as §1

TSSK1B = TSSK1B (Homo sapiens, UniProt Q9BXA7); set-up: KINOMEscan (DiscoverX) competition binding screen of 97 human kinases, percent of control at 10 uM
Protocol: as §1

PIM3 = PIM3 (Homo sapiens, UniProt Q86V86); set-up: KINOMEscan (DiscoverX) competition binding screen of 97 human kinases, percent of control at 10 uM
Protocol: as §1

PIK3CG = PIK3CG (Homo sapiens, UniProt P48736); set-up: KINOMEscan (DiscoverX) competition binding screen of 97 human kinases, percent of control at 10 uM
Protocol: as §1

p38-beta = target: T3, p38-beta (Homo sapiens, UniProt Q15759); set-up: KINOMEscan (DiscoverX) competition binding screen of 97 human kinases, percent of control at 10 uM
T3 construct: gene MAPK11
Protocol: as §1

p38-alpha = target: T4, p38-alpha (Homo sapiens, UniProt Q16539); set-up: KINOMEscan (DiscoverX) competition binding screen of 97 human kinases, percent of control at 10 uM
T4 construct: gene MAPK14
Protocol: as §1

KIT(D816V) = KIT(D816V) (Homo sapiens, UniProt P10721, D816V); set-up: KINOMEscan (DiscoverX) competition binding screen of 97 human kinases, percent of control at 10 uM
Protocol: as §1

[1] = target: T5, JAK2(JH1domain-catalytic) (Homo sapiens, UniProt O60674); set-up: KINOMEscan (DiscoverX) competition binding screen of 97 human kinases, percent of control at 10 uM
T5 construct: JH1domain-catalytic
Protocol: as §1

INSR = INSR (Homo sapiens, UniProt P06213); set-up: KINOMEscan (DiscoverX) competition binding screen of 97 human kinases, percent of control at 10 uM
Protocol: as §1

[2] = target: T6, JAK3(JH1domain-catalytic) (Homo sapiens, UniProt P52333); set-up: KINOMEscan (DiscoverX) competition binding screen of 97 human kinases, percent of control at 10 uM
T6 construct: JH1domain-catalytic
T6 sequence (P52333 whole entry): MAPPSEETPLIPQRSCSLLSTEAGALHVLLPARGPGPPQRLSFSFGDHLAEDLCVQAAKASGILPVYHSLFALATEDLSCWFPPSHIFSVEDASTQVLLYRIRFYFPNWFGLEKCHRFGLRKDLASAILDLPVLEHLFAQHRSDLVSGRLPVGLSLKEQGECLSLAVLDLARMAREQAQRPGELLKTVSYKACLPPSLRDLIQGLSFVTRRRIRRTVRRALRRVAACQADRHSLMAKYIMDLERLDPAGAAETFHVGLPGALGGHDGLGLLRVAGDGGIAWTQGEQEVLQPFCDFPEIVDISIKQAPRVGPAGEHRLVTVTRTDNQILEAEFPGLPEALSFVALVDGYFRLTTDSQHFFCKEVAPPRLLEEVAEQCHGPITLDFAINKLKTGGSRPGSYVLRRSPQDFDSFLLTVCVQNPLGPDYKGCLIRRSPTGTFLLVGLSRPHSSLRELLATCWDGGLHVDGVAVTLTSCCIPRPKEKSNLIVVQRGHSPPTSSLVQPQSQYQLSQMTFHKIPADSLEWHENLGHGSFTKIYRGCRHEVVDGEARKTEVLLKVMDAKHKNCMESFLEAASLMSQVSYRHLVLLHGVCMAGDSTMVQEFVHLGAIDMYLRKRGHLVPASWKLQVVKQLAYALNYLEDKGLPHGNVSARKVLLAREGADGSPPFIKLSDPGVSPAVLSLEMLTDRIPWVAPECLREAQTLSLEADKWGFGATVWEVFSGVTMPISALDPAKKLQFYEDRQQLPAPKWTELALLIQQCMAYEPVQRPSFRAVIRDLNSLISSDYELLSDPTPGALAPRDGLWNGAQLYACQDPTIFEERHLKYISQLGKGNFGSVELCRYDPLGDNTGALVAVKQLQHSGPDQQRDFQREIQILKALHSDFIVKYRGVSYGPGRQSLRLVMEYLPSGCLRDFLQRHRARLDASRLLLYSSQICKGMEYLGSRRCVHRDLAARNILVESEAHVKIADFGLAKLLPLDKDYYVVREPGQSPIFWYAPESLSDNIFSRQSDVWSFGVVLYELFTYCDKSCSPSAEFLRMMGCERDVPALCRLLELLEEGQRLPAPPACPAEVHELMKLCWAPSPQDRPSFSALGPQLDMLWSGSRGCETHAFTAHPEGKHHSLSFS
Protocol: as §1

CDK9 = CDK9 (Homo sapiens, UniProt P50750); set-up: KINOMEscan (DiscoverX) competition binding screen of 97 human kinases, percent of control at 10 uM
Protocol: as §1

FAK = target: T7, FAK (Homo sapiens, UniProt Q05397); set-up: KINOMEscan (DiscoverX) competition binding screen of 97 human kinases, percent of control at 10 uM
T7 construct: gene PTK2
T7 sequence (Q05397 whole entry): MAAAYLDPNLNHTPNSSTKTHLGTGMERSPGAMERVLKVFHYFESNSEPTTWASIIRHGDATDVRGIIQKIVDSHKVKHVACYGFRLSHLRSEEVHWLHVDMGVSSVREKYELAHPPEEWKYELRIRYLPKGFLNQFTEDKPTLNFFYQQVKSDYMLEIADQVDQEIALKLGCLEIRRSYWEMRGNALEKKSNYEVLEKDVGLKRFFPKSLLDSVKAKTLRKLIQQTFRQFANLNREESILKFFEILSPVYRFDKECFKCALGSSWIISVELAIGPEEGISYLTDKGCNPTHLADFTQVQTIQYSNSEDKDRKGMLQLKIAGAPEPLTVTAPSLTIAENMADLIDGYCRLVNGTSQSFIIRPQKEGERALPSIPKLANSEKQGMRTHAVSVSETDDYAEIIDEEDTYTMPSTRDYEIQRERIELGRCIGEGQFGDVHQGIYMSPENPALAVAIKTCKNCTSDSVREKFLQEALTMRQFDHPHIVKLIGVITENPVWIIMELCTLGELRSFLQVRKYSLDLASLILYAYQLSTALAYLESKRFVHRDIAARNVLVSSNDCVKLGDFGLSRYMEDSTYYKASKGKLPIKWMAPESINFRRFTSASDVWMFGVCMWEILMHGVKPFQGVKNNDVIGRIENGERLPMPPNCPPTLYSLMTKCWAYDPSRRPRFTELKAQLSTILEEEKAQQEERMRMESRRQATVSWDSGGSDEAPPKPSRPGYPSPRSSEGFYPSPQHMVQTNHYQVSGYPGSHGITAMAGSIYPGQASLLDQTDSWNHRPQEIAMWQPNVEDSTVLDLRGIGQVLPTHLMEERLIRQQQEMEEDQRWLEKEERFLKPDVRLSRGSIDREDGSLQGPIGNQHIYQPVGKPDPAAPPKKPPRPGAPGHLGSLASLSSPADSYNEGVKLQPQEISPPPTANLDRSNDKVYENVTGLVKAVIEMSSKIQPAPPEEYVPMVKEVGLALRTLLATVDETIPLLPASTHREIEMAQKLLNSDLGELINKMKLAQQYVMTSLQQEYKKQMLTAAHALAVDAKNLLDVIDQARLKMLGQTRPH
Protocol: as §1

JNK2 = target: T8, JNK2 (Homo sapiens, UniProt P45984); set-up: KINOMEscan (DiscoverX) competition binding screen of 97 human kinases, percent of control at 10 uM
T8 construct: gene MAPK9
Protocol: as §1

BTK = BTK (Homo sapiens, UniProt Q06187); set-up: KINOMEscan (DiscoverX) competition binding screen of 97 human kinases, percent of control at 10 uM
Protocol: as §1

PLK4 = PLK4 (Homo sapiens, UniProt O00444); set-up: KINOMEscan (DiscoverX) competition binding screen of 97 human kinases, percent of control at 10 uM
Protocol: as §1

RIOK2 = RIOK2 (Homo sapiens, UniProt Q9BVS4); set-up: KINOMEscan (DiscoverX) competition binding screen of 97 human kinases, percent of control at 10 uM
Protocol: as §1

PKAC-alpha = target: T9, PKAC-alpha (Homo sapiens, UniProt P17612); set-up: KINOMEscan (DiscoverX) competition binding screen of 97 human kinases, percent of control at 10 uM
T9 construct: gene PRKACA
Protocol: as §1

PIK3C2B = PIK3C2B (Homo sapiens, UniProt O00750); set-up: KINOMEscan (DiscoverX) competition binding screen of 97 human kinases, percent of control at 10 uM
PIK3C2B, sequence (O00750 whole entry): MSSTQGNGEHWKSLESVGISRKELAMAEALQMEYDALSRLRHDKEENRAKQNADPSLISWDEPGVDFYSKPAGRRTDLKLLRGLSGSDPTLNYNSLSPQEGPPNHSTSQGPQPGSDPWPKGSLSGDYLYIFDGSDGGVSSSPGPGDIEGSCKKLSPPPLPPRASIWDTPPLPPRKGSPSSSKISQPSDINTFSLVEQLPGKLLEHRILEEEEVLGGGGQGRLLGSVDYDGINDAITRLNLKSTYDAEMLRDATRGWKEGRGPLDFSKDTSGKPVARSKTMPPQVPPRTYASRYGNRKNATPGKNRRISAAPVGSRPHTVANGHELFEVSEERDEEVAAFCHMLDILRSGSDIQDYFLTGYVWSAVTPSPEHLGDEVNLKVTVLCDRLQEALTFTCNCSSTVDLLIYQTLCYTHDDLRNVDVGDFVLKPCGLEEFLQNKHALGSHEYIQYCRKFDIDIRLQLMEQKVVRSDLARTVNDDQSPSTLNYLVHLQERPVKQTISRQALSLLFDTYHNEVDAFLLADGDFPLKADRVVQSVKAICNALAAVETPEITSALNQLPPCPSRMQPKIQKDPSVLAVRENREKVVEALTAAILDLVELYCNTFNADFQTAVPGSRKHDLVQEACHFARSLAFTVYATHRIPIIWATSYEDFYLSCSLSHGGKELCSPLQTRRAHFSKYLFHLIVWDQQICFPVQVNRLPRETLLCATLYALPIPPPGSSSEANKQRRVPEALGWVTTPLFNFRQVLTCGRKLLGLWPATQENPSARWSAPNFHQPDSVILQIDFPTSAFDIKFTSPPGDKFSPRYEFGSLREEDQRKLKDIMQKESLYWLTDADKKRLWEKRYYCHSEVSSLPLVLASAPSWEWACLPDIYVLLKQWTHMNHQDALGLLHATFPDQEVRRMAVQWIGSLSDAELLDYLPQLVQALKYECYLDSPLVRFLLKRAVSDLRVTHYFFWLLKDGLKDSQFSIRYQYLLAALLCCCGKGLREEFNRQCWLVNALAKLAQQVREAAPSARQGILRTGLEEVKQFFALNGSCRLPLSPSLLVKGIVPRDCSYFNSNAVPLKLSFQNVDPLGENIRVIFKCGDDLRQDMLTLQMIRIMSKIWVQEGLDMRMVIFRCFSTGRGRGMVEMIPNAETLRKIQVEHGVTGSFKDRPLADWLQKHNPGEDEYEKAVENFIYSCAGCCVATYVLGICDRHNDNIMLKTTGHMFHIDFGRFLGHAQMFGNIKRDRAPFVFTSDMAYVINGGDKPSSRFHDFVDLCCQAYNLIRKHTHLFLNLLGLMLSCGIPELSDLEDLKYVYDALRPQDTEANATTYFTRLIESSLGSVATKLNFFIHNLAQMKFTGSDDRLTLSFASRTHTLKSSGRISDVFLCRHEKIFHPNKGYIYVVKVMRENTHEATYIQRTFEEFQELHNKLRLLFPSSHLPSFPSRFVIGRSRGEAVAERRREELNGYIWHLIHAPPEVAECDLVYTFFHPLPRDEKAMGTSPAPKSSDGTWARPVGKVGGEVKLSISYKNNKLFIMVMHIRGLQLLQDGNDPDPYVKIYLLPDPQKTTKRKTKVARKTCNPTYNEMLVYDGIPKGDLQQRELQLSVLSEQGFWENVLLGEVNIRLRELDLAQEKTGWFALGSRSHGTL
Protocol: as §1

TIE2 = TIE2 (Homo sapiens, UniProt Q02763); set-up: gene TEK; KINOMEscan (DiscoverX) competition binding screen of 97 human kinases, percent of control at 10 uM
Protocol: as §1

[3] = binding competition, % of control, read-out: RU-301 %Ctrl @ 10000nM
[4] = read-out: R428 %Ctrl @ 10000nM, binding competition

Which remaining binding at 10 µM (VEGFR2; [3]) does the source give for Cc1cc(CSc2ccccc2C(=O)NCCNc2ccc(C(F)(F)F)cc2[N+](=O)[O-])on1 [RU-301] here?
The remaining binding at 10 µM was 99%.

And the remaining binding at 10 µM (ABL1-nonphosphorylated; [3])?
The remaining binding at 10 µM was 100%.

And the remaining binding at 10 µM (AURKB; [3])?
The remaining binding at 10 µM was 73%.

And the remaining binding at 10 µM (JNK3; [3])?
The remaining binding at 10 µM was 100%.

And the remaining binding at 10 µM (CSF1R; [3])?
Its remaining binding at 10 µM is 90%.

What about the remaining binding at 10 µM (TSSK1B; [3]) of the same compound?
Its remaining binding at 10 µM is 78%.

What about the remaining binding at 10 µM (PIM3; [3]) of the same compound?
The remaining binding at 10 µM was 86%.

What about the remaining binding at 10 µM (PIK3CG; [3]) of the same compound?
The remaining binding at 10 µM was 100%.

What about the remaining binding at 10 µM (p38-beta; [3]) of the same compound?
Its remaining binding at 10 µM is 100%.

And the remaining binding at 10 µM (p38-alpha; [3])?
The remaining binding at 10 µM was 93%.

And the remaining binding at 10 µM (KIT(D816V); [3])?
Its remaining binding at 10 µM is 100%.

And the remaining binding at 10 µM [1, 3]?
The remaining binding at 10 µM was 87%.

What about the remaining binding at 10 µM (INSR; [3]) of the same compound?
The remaining binding at 10 µM was 89%.

And the remaining binding at 10 µM [2, 3]?
The remaining binding at 10 µM was 95%.

And the remaining binding at 10 µM (CDK9; [3])?
Its remaining binding at 10 µM is 95%.

What about the remaining binding at 10 µM (FAK; [3]) of the same compound?
Its remaining binding at 10 µM is 100%.

And the remaining binding at 10 µM (JNK2; [3])?
The remaining binding at 10 µM was 97%.

And the remaining binding at 10 µM (BTK; [3])?
Its remaining binding at 10 µM is 100%.

And the remaining binding at 10 µM (PLK4; [3])?
The remaining binding at 10 µM was 81%.

And the remaining binding at 10 µM (RIOK2; [3])?
The remaining binding at 10 µM was 100%.

And the remaining binding at 10 µM (PKAC-alpha; [3])?
Its remaining binding at 10 µM is 90%.

What about the remaining binding at 10 µM (PIK3C2B; [3]) of the same compound?
Its remaining binding at 10 µM is 100%.

And the remaining binding at 10 µM (TIE2; [3])?
The remaining binding at 10 µM was 100%.

Which results are given for Nc1nc(Nc2ccc3c(c2)CC[C@@H](N2CCCC2)CC3)nn1-c1cc2c(nn1)-c1ccccc1CCC2 [R428]?
percent of control binding at 10 µM (VEGFR2; [4]): 1%; percent of control binding at 10 µM (ABL1-nonphosphorylated; [4]): 0.25%; percent of control binding at 10 µM (AURKB; [4]): 0.45%; percent of control binding at 10 µM (JNK3; [4]): 46%; percent of control binding at 10 µM (CSF1R; [4]): 0.35%; percent of control binding at 10 µM (TSSK1B; [4]): 22%; percent of control binding at 10 µM (PIM3; [4]): 84%; percent of control binding at 10 µM (PIK3CG; [4]): 21%; percent of control binding at 10 µM (p38-beta; [4]): 84%; percent of control binding at 10 µM (p38-alpha; [4]): 78%; percent of control binding at 10 µM (KIT(D816V); [4]): 0.15%; percent of control binding at 10 µM [1, 4]: 0%; percent of control binding at 10 µM (INSR; [4]): 14%; percent of control binding at 10 µM [2, 4]: 0.2%; percent of control binding at 10 µM (CDK9; [4]): 92%; percent of control binding at 10 µM (FAK; [4]): 83%; percent of control binding at 10 µM (JNK2; [4]): 96%; percent of control binding at 10 µM (BTK; [4]): 31%; percent of control binding at 10 µM (PLK4; [4]): 1.7%; percent of control binding at 10 µM (RIOK2; [4]): 94%; percent of control binding at 10 µM (PKAC-alpha; [4]): 48%; percent of control binding at 10 µM (PIK3C2B; [4]): 31%; percent of control binding at 10 µM (TIE2; [4]): 0.45%
